Experimental findings from patent US8318767B2, “Substituted imidazoles as bombesin receptor subtype-3 modulators” (Merck Sharp & Dohme Corp, priority 2006, dated 2012) are described below.

Usually IC50 stands for the concentration that gives 50% inhibition. Lower therefore signals higher potency.

The target of the experiment is T1, human BRS-3 (Homo sapiens, UniProt P32247).
T1 construct: expressed in transfected cells
T1 sequence (P32247 1-399): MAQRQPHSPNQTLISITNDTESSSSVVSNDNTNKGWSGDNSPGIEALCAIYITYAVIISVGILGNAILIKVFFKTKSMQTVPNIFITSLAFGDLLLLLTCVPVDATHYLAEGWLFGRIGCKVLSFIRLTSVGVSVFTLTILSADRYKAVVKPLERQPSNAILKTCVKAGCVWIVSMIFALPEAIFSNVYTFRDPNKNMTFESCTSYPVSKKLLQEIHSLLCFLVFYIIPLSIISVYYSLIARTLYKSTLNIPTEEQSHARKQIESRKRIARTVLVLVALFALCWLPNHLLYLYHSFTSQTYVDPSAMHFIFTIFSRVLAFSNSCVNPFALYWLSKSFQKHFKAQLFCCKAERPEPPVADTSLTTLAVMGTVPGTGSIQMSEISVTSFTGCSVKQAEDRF
The experiment is described as follows: Bombesin Receptor Subtype 3 (BRS3) radioligand binding assay. The conditions noted are these: selected compounds. How it is done:
Human embryonic kidney (HEK 293) cells expressing human BRS-3 were cultured to confluence and harvested by aspirating the culture medium and rinsing twice with 1×PBS without Mg^++ and Ca^++. Cellstriper Solution (Cellgrow #25-056-C1, 3 mL) was added to each T-175 flask until all cells dissociated and then an additional 15 mL 1×PBS without Mg^++ and Ca^++ were added to each flask. Dissociated cells were collected by centrifuging at 1000 rpm for 10 minutes. Cell pellets were resuspended and homogenized at 4° C. using a Polytron homogenizer (setting 40, 20 stokes) in approximately 10 mL membrane preparation buffer (10 mM Tris pH 7.4, 0.01 mM Pefabloc, 10 μM phosphoramidon and 40 μg/mL Bacitracin) per T175 flask. After centrifugation at 2200 rpm (1000×g) for 10 minutes at 4° C., the supernatant was transferred to a clean centrifuge tube and spun at 18,000 rpm (38,742×g) for 15 minutes. at 4° C. Membranes were resuspended in the above membrane preparation buffer (1 mL/T-175 flask), homogenized, aliquoted, quickly frozen in liquid nitrogen and stored at −80° C.
For the [^125I]-[D-Tyr^6,β-Ala^11,Phe^13,Nle^14]-Bombesin(6-14), “[^125I]-dY-peptide”, radioligand assay the specific binding of [^125I]-dY-peptide to human BRS3 was measured by filtration assay in 96-well plate format. The receptor membrane (2 μg/well) in binding buffer (50 mM Tris pH 7.4, 5 mM MgCl2, 0.1% BSA and protease inhibitor cocktail) was mixed with compound in DMSO (1% final concentration) and 30 pM [^125I]-dY-peptide. After incubation for 1-2 hours at room temperature, membrane-bound [^125I]-dY-peptide was separated from free [^125I]-dY-peptide by filtering through GF/C filters presoaked in 1% PEI solution. The filters were washed five times with ice-cold washing buffer (1×PBS without Mg^++ and Ca^++). The radioactivity was determined by adding 30 μl of microscintillant/well after each plate was dried at room temperature overnight or placed at 50° C. for 1 hr.
The radioligand, [^3H]-1-{4-[(4,5-difluoro-2-hydroxycarbonylphenyl)phenyl]}-2-(4-cyclohexylmethyl-1H-imidazol-2-yl)ethane, was used for binding to receptor membranes generated with BRS3 from rat and mouse and was also utilized for the human receptor. Cell membranes (5 to 20 μg/well) were added to binding buffer (25 mM Tris pH 7.4, 10 mM MgCl2, 2 mM EDTA and protease I cocktail) containing compound in DMSO (1% final concentration) and 660 pM [^3H]-biphenyl. After incubation for 1-2 hours at room temperature, membrane bound [^3H]-biphenyl was separated from free radiologand by filtering through GF/C filters presoaked in 1% PEI solution. The filters were washed five times with ice-cold washing buffer (50 mM Tris pH 7.4, 10 mM MgCl2, 2.5 mM EDTA and 0.02% Triton X-100). The radioactivity was determined by adding 30 μl of microscintillant/well after each plate was dried at room temperature overnight or placed at 50° C. for 1 hr.
A Packard Top Count was used to read the filter plates. The data in % inhibition of binding was plotted vs. the log molar concentration of receptor ligand (compound). The IC50 was reported as the inflection point of the resulting sigmoidal curve.
The binding assays for the rat and mouse Bombesin Receptor Subtype 3 (BRS3) were performed in a similar fashion.
An NFATCHO cell line stably expressing human BRS3 cDNA was generated using standard cell biology techniques and used to prepare receptor membranes for the human “[^125I]-dY-peptide binding assay. The cell line was cultured in T175 flasks in Iscove's Modified Dulbecco's Medium with L-glutamine and 25 mM HEPES buffer (Gibco #12440-046) supplemented with 10% FBS (cat#SH30070.03, Hyclone, Logan, Utah), 1×HT Supplement (0.1 mM Sodium Hypoxanthine and 16 μM Thymidine Gibco #11067-030), 2 mM L-glutamine (Gibco #25030-081), 100 units/mL Penicillin-G and 100 μg/mL Streptomycin (Gibco #15140-122) and 1 mg/mL Geneticin (Gibco #10131-027).
Compound `CC(C)(C)Cc1c[nH]c(C(C)(O)Cc2ccc(-n3cccn3)cc2)n1` (stereo not drawn) [Example 33, 2-[4-(2,2-dimethylpropyl)-1H-imidazol-2-yl]-1-[4-(1H-pyrazol-1-yl)phenyl]propan-2-ol] registered an IC50 of 195 nM.
In the case of `CCC(C)(C)Cc1c[nH]c(C2(Cc3ccc(-c4ccc(F)cn4)cc3)CCCN2)n1` (stereo not drawn) [Example 55, 2-[4-({2-[4-(2,2-dimethylbutyl)-1H-imidazol-2-yl]pyrrolidin-2-yl}methyl)phenyl]-5-fluoropyridine], the IC50 turned out to be 5.1 nM.
For `CCC(C)(C)Cc1c[nH]c(C(C)(O)Cc2ccc(-c3ccc(F)cn3)cc2)n1` (stereo not drawn) [Example 29, 2-[4-(2,2-dimethylbutyl)-1H-imidazol-2-yl]-1-[4-(5-fluoropyridin-2-yl)phenyl]propan-2-ol] the value was 58 nM; for `CCNC(Cc1ccc(-c2ccccn2)cc1)c1nc(CC(C)(C)C)c[nH]1` (stereo not drawn) [Example 3, 1-[4-(2,2-dimethylpropyl)-1H-imidazol-2-yl]-N-ethyl-2-(4-pyridin-2-ylphenyl)ethanamine], 245 nM; for `CC(=O)NC(Cc1ccc(-c2ccc(F)cn2)cc1)c1nc(CC(C)(C)C)c[nH]1` (stereo not drawn) [Example 9, N-{1-[4-(2,2-dimethylpropyl)-1H-imidazol-2-yl]-2-[4-(5-fluoropyridin-2-yl)phenyl]ethyl}acetamide], 220 nM.
For `CC(C)(C)Cc1c[nH]c(C(O)Cc2ccc(-c3ccc(F)cn3)cc2)n1` (stereo not drawn) [Example 18, 1-[4-(2,2-dimethylpropyl)-1H-imidazol-2-yl]-2-[4-(5-fluoropyridin-2-yl)phenyl]ethanol] the value was 110 nM.
Consider `CC(C)(C)Cc1c[nH]c(C(O)Cc2ccc(-c3ccccn3)cc2)n1` (stereo not drawn) [Example 1, 1-[4-(2,2-dimethylpropyl)-1H-imidazol-2-yl]-2-(4-pyridin-2-ylphenyl)ethanol], for which the IC50 worked out at 120 nM.
For `CCC(C)(C)Cc1c[nH]c(C(Cc2ccc(-c3ccc(F)cn3)cc2)NC)n1` (single isomer, unassigned) [Example 6, 1-[4-(2,2-dimethylbutyl)-1H-imidazol-2-yl]-2-[4-(5-fluoropyridin-2-yl)phenyl]-N-methylethanamine] the value was 285 nM; for `CC(C)(C)Cc1c[nH]c(C(C)(O)Cc2ccc(-c3ccc(F)cn3)cc2)n1` (stereo not drawn) [Example 15, 2-[4-(2,2-dimethylpropyl)-1H-imidazol-2-yl]-1-[4-(5-fluoropyridin-2-yl)phenyl]propan-2-ol], 190 nM.
